Laboratory results from ChEMBL document CHEMBL1268984, “N-Substituted acetamidines and 2-methylimidazole derivatives as selective inhibitors of neuronal nitric oxide synthase” (Bioorg Med Chem Lett, 2010).

Assays:
[1] = Selectivity ratio, ratio of IC50 for bovine eNOS to IC50 for rat brain nNOS
[2] = target: T1, Nitric oxide synthase, inducible (Mus musculus, UniProt P29477); experiment: Inhibition of mouse macrophage iNOS assessed as nitric oxide mediated oxidation of oxyhemoglobin to methemoglobin
T1 sequence (P29477 whole entry): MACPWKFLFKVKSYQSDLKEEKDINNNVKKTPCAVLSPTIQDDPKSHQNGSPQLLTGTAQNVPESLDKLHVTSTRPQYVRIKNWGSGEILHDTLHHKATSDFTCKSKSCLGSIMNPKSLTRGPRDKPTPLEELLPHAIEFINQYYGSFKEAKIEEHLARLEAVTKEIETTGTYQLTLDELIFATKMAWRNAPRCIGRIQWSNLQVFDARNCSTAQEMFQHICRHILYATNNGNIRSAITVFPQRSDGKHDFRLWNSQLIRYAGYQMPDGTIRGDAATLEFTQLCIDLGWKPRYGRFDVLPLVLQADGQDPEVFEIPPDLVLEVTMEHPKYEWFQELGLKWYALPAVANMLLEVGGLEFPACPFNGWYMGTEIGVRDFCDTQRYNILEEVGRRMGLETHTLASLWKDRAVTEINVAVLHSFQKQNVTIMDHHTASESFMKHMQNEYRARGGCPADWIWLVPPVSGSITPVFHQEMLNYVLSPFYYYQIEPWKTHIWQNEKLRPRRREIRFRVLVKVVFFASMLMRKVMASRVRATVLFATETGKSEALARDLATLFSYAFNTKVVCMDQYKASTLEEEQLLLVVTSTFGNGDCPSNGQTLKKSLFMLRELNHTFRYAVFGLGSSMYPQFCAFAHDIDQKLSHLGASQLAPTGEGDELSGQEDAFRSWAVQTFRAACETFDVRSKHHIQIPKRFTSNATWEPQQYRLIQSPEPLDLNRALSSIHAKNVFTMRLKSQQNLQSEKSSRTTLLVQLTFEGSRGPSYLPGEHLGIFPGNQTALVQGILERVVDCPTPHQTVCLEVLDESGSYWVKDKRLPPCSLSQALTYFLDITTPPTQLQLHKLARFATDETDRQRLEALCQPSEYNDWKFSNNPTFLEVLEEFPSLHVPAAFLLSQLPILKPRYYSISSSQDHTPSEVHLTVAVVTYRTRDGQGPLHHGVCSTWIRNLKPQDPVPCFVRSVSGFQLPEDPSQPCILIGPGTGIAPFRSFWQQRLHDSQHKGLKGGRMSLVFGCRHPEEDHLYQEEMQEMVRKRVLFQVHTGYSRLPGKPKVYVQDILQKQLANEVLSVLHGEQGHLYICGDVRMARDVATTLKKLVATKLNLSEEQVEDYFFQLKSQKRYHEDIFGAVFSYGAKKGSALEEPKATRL

Nitric oxide synthase 3 = target: T2, Nitric oxide synthase 3 (Bos taurus, UniProt P29473); experiment: Inhibition of bovine eNOS assessed as nitric oxide mediated oxidation of oxyhemoglobin to methemoglobin
T2 sequence (P29473 whole entry): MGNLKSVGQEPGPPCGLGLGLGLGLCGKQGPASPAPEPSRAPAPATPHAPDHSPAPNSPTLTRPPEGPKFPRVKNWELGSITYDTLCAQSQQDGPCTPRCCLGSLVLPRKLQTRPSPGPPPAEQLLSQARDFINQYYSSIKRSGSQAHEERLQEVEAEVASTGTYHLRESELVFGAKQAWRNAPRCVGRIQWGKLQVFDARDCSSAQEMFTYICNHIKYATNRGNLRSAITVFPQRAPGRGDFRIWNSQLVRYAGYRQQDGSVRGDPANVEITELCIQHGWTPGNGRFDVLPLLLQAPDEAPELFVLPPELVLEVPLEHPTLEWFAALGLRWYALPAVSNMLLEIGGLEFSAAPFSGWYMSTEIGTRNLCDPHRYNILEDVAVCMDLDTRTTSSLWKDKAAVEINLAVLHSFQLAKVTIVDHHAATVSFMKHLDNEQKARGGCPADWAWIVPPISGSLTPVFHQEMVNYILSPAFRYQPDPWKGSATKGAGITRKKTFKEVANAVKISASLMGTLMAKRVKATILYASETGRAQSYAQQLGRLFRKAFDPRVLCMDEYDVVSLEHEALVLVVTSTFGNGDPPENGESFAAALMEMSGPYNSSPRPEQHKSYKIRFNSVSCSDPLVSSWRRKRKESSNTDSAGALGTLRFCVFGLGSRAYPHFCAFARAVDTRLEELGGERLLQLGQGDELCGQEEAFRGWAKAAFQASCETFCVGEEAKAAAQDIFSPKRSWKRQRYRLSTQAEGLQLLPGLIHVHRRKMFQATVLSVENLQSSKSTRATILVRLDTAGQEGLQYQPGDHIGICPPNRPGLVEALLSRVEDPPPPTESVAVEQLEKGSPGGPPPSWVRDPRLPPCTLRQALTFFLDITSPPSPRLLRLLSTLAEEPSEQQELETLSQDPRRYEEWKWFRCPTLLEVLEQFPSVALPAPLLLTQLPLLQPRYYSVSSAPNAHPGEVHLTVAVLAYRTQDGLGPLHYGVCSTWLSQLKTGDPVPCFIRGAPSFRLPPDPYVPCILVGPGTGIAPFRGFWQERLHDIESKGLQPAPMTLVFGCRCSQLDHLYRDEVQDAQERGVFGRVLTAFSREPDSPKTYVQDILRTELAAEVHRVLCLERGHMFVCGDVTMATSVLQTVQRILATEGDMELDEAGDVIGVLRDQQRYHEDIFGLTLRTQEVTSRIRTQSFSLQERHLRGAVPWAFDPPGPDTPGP

Nitric oxide synthase 1 = Nitric oxide synthase 1 (Rattus norvegicus, UniProt P29476); experiment: Inhibition of rat brain nNOS assessed as nitric oxide mediated oxidation of oxyhemoglobin to methemoglobin
[3] = Selectivity ratio, ratio of IC50 for mouse macrophage iNOS to IC50 for rat brain nNOS

Nitric oxide synthase 1, sequence (P29476 whole entry): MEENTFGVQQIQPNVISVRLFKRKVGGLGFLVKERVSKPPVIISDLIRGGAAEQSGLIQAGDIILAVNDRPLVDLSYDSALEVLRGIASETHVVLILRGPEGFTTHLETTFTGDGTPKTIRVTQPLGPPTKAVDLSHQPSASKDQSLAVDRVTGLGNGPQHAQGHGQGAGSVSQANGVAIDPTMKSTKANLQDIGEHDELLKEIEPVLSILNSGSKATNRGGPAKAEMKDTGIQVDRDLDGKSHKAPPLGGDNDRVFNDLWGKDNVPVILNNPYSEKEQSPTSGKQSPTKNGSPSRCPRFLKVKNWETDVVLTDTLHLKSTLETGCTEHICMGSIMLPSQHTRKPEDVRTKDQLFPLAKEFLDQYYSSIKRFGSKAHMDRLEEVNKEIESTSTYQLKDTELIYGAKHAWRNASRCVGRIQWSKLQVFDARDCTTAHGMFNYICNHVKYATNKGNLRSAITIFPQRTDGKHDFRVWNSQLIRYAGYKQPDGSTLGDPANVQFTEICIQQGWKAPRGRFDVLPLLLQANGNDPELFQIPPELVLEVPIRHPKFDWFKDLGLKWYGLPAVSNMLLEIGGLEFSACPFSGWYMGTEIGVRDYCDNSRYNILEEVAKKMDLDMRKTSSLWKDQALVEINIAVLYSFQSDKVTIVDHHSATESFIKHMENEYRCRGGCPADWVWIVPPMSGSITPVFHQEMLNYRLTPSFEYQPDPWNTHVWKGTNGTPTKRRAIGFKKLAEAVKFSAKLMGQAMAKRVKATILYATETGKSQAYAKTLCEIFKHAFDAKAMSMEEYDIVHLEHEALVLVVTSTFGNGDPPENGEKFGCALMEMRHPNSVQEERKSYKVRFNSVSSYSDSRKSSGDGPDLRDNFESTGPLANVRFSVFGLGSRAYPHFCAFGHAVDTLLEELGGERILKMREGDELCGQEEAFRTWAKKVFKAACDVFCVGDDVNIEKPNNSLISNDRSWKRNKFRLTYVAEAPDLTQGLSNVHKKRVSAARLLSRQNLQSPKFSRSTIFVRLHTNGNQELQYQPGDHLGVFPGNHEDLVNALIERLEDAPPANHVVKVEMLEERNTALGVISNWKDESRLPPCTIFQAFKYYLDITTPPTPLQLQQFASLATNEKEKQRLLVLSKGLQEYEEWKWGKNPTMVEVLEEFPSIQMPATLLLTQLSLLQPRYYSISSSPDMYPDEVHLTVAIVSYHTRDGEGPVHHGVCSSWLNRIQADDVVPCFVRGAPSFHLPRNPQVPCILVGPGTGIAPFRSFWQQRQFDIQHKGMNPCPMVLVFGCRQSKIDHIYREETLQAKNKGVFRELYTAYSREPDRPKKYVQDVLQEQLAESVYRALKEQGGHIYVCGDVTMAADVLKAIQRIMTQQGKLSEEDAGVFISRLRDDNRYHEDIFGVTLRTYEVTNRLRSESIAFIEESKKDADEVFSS

SMILES	Ratio IC50 [1]	IC50 [2]	IC50 (Nitric oxide synthase 3)	IC50 (Nitric oxide synthase 1)	Ratio IC50 [3]
Cc1nccn1Cc1ccncc1	20	12 µM	100 µM	5 µM	2.4
CC(=N)NCc1ccc2c(c1)OCO2	1	800 µM	400 µM	400 µM	2
Cc1nccn1C(C)c1ccccc1 (racemic) [EFETOZOLE]	16	100 µM	80 µM	5 µM	20
CC(=N)NC(c1ccccc1)c1ccccc1	1170	30 µM	350 µM	0.3 µM	100
COc1cccc(CNC(C)=N)c1	10	50 µM	100 µM	10 µM	5
Cc1nccn1Cc1ccccc1	18	50 µM	90 µM	5 µM	10

Stronger by IC50 [2], values ahead:

Ratio IC50 [1]	IC50 [2]	IC50 (Nitric oxide synthase 3)	IC50 (Nitric oxide synthase 1)	Ratio IC50 [3]	SMILES
500	10 µM	100 µM	0.2 µM	50	CC(=N)NC(c1ccccc1)C(C)C (racemic)
2	0.45 µM	300 µM	150 µM	0.003	CC(=N)N[C@@H](C)c1ccccc1
0.9	0.25 µM	80 µM	90 µM	0.003	CCC(NC(C)=N)c1ccccc1 (racemic)
2.3	0.2 µM	350 µM	150 µM	0.013	CC(=N)NCc1ccccc1
